Measurements published in publication PMC6728138, “Quantitative mapping of protein-peptide affinity landscapes using spectrally encoded beads” (eLife, 2019).
Read-outs that look alike come from different tables or passages of the source. Ends that are not written are not given here.

How the values were obtained:
[1] = biological target: T1, calcineurin (CN) (Homo sapiens, UniProt Q08209); assay: MRBLE-pep calcineurin binding assay (concentration-dependent)
T1 construct: human calcineurin A isoforms (truncated at residue 400); made in house; host or cells: E. coli BL21 (DE3)
Protocol: MRBLEs were prepared by transferring a 20 μL aliquot from a 600 μL suspension (∼3000–8000 beads depending on pellet size) to a 100 μL PCR strip (20 μL for each CN concentration), exchanging buffer via 3 cycles of iterative pelleting, decanting, and resuspension with 0.1% PBST containing 5% BSA, pH = 7.5 (100 μL), and then left mixing at ∼5 °C on a rotator in the same wash buffer overnight (∼14 hr). MRBLEs were then buffer exchanged once again with CN binding buffer (50 mM Tris pH = 7.5, 150 mM NaCl, 0.1% TWEEN 20) via three iterative cycles of pelleting, decanting, and resuspension.
After incubation, MRBLEs were pelleted, decanted, and washed once with 0.1% PBST (100 μL). After a final round of pelleting and decanting, 20 μL of 0.1% PBST was added and the beads were transferred to a quartz microscope slide for imaging.
The affinity ( Kd ) for each peptide in a MBRLE library was determined via a two-step nonlinear regression using a single-site binding model:(1) Ii=(Imax[CNtotal])/(Kd,i+[CNtotal]) where Ii is the median measured fluorescence intensity for each peptide, Kd,i is the dissociation constant for that interaction, [ CNtotal ] is total CN concentration, and Imax is a global variable representing the fluorescence intensity once MRBLE-pep beads are saturated. First, we determined the global saturation value ( Imax ), by globally fitting the top 80% highest-intensity MRBLE codes. Next, we globally fit the entire data set using this Imax value to yield an estimated absolute affinity ( Kd ) for all peptides in the library. […] Differences in binding affinity were calculated relative to a reference peptide using the standard equation:(2) ΔΔG=RTln(Kd,i/Kd,ref)
Next, we used this reference value and calculated differences in binding affinity ( ΔΔG ) to estimate absolute Kd values for each peptide within the calibration and full calibration libraries (Figure 2—source data 1, Figure 2—source data 2, Figure 5—source data 1, Figure 5—source data 2, Figure 5—source data 3, Figure 5—source data 4).

[2] = tested on: NFAT-driven luciferase activity in HEK293T cells; assay: In vivo calcineurin activity assay (NFAT dual luciferase reporter); type: cell-based; conditions: initial in vivo experiment, FK506 1 μM
Description: To test the degree to which in vitro MRBLE-pep affinities predict in vivo inhibition, we used a previously developed dual luciferase reporter assay to assess the activity of the NFAT2 transcription factor in HEK293T cells (Figure 6A) ([Grigoriu et al., 2013]). NFAT2 must be dephosphorylated by CN to accumulate in the nucleus, where it activates transcription of its target genes, and this interaction can be inhibited by peptides or small molecules that binds to CN. Reduction of NFAT2-dependent transcriptional activity upon expression of a competing PxIxIT peptide therefore reflects, quantitatively, the affinity of the inhibitor peptide for CN. Candidate PxIxIT inhibitors were co-expressed as GFP-fusion proteins within cells to enhance their stability and facilitate direct measurement of inhibitor concentrations.
PxIxIT peptides were fused to eGFP in pEGFPc1 vector. HEK293T cells were transfected with pEGFPc1 clones, pNFAT-Luc and CMV-Renilla in a 6-well plate format. 18 hr post transfection, 1μM FK506 or DMSO (vehicle) was added to the media as needed. […] 6 hr after pathway activation, cells were collected, washed in PBS and re-suspended in DMEM media. 80% of the cells were used to measure luciferase activity and renilla using the Dual-Glo assay system (Promega) with three technical replicates. The remaining cells were frozen and stored at −80°C. Cell lysates were prepared in RIPA buffer. 15–20 μg of lysate was analyzed by Western for expression of GFP. GFP signal was normalized to either actin or tubulin. Luciferase activity (normalized to renilla expression) was further normalized to eGFP expression. Data represent at least three experimental replicates.

[3] = tested on: CN; conditions: ref Fruman et al., 1992; cited from earlier work
Description: Consistent with MRBLE-pep measurements, ...

T1 sequence (Q08209 1-400 limits assumed): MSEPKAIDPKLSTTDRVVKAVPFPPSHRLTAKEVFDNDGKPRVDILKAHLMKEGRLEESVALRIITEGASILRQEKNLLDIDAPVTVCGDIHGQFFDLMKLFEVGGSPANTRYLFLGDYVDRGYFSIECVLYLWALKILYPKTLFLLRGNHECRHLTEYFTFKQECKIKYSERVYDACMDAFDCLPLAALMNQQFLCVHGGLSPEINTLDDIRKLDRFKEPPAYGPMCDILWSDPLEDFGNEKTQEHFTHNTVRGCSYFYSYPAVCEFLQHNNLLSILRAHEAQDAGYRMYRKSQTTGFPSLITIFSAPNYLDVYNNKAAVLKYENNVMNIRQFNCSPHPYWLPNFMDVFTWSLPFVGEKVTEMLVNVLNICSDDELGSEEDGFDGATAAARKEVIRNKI
T1 sequence (P63098 whole entry partner, the tested form may be a part, canonical isoform): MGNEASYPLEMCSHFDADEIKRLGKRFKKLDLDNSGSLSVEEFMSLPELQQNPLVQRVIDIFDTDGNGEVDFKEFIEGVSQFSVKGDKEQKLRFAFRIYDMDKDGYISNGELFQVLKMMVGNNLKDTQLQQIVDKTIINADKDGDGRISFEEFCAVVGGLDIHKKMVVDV

Question: Which Kd ([1]; kd, 'Triplicate high' library) does the source give for HPSIVITGPH-NH2 here?
Answer: 880 ± 260 nM

Question: For HPVIVVTGPH-NH2, which Kd ([1]; apparent Kd, 'Triplicate low' (Figure 2C, measure not given)) is on record?
Answer: 2000 ± 400 nM

Question: What about the Kd ([1]; kd, 'Triplicate high' library) of the same molecule?
Answer: 920 ± 250 nM

Question: Which “NFAT-driven luciferase activity, normalized to renilla and eGFP expression, relative to empty vector (Data)” value ([2]; replicate 1) does the source give for `C=CC[C@@H]1/C=C(\C)C[C@H](C)C[C@H](OC)[C@H]2O[C@@](O)(C(=O)C(=O)N3CCCC[C@H]3C(=O)O[C@H](/C(C)=C/[C@@H]3CC[C@@H](O)[C@H](OC)C3)[C@H](C)[C@@H](O)CC1=O)[C@H](C)C[C@@H]2OC` [FK506] here?
Answer: 0.09

Question: And the “NFAT-driven luciferase activity, normalized, relative to empty vector (Data)” value ([2]; replicate 2)?
Answer: 0.08616

Question: And the “NFAT-driven luciferase activity, normalized, relative to empty vector (Data)” value ([2]; replicate 3)?
Answer: 0.09188

Question: What about the IC50 [3] of the same molecule?
Answer: ~0.5 nM

Question: Which Kd ([1]; bold value over the codes, read-out: kd, 'Triplicate high' library) does the source give for HAVIVITGPH-NH2 here?
Answer: 1270 ± 130 nM
